Drawing on patent publication US7829563B2, “Aminoamides as orexin antagonists” (Hoffmann-La Roche Inc., priority 2007, dated 2010), this text covers Kb for 22 compounds.

SMILES strings stand for the structures.

In this assay the target is T1, human orexin-2 (hOX2) receptors (Homo sapiens, UniProt O43614).
T1 construct: expressed in transfected cells
T1 sequence (O43614 1-444): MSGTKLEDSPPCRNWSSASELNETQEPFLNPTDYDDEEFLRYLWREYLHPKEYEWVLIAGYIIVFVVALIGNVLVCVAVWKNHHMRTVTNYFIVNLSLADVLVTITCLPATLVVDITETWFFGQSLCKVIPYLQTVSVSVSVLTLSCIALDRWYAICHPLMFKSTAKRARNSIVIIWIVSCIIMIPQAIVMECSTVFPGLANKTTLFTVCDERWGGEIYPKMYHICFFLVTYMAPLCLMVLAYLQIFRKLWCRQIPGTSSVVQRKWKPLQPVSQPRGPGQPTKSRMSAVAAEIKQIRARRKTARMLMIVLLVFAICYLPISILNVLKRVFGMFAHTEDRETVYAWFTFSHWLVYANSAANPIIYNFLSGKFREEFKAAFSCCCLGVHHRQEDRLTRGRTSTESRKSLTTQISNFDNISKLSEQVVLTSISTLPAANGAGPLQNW
As to the kind of experiment: Intracellular Ca2+ mobilization assay (FLIPR), antagonism of orexin-A. The class given is cell-based. The conditions noted are these: CHO(dHFr−) cells stably expressing hOX2; orexin-A at EC80 as agonist; Kb=IC50/(1+[A]/EC50); read-out: Kb (μM) OX2R (human). Here is the method: R^7 and R^8 in scheme 5 are hydrogen, and the other substituents are as described above The compounds were investigated in accordance with the test given hereinafter. Intracellular Ca^2+ Mobilization Assay
The Chinese Hamster Ovary (dHFr−) mutant cell line stably expressing human orexin-1 (hOX1) or human orexin-2 (hOX2) receptors were maintained in Dulbecco's Modified Eagle Medium (1×) with GlutaMax™ 1, 4500 mg/L D-Glucose and Sodium Pyruvate (Catalog No. 31966-021, Invitrogen, Carlsbad, Calif.), 5% dialyzed fetal calf serum (Catalog No. 26400-044), 100 μg/ml penicillin and 100 μg/ml streptomycin. The cells were seeded at 5×10^4 cells/well in the poly-D-lysine treated, 96-well, black/clear-bottomed plates (Catalog No. BD356640, BD Biosciences, Palo Alto, Calif.). 24 h later, the cells were loaded for 1 h at 37° C. with 4 μM Flou-4 acetoxymethyl ester (Catalog No. F-14202, Molecular Probes, Eugene, Oreg.) in FLIPR buffer (1×HBSS, 20 mM HEPES, 2.5 mM Probenecid). Hanks' Balanced Salt Solution (HBSS) (10×) (catalog No. 14065-049) and HEPES (1M) (catalog No. 15630-056) were purchased from Invitrogen, Carlsbad, Calif. Probenecid (250 mM) (catalog No. P8761) was from Sigma, Buchs, Switzerland. The cells were washed five times with FLIPR buffer to remove excess dye and intracellular calcium mobilization, [Ca^2+]i were measured using a Fluorometric Imaging Plate Reader (FLIPR-96, Molecular Devices, Menlo Park, Calif.) as described previously (Malherbe et al., Mol. Pharmacol., 64, 823-832, 2003). Orexin A (catalog No. 1455, Toris Cookson Ltd, Bristol, UK) was used as agonist. Orexin A ([…] stock solution in DMSO) was diluted in FLIPR buffer+0.1% BSA. The EC50 and EC80 values of orexin-A were measured daily from standard agonist concentration-response curves in CHO(dHFr−)-OX1R and —OX2R cell lines. All compounds were dissolved in 100% DMSO. Inhibition curves were determined by addition of 11 concentrations (0.0001-10 μM) of inhibitory compounds and using EC80 value of orexin-A as agonist (a concentration which gave 80% of max agonist response, determined daily). The antagonists were applied 25 min (incubation at 37° C.) before the application of the agonist. Responses were measured as peak increase in fluorescence minus basal, normalized to the maximal stimulatory effect induced by EC80 value of orexin-A or orexin-B. Inhibition curves were fitted according to the Hill equation: y=100/(1+(x/IC50)^nH), where nH=slope factor using Excel-fit 4 software (Microsoft). Kb values were calculated according to the following equation Kb=IC50/(1+[A]/EC50) where A is the concentration of agonist added which is very close to agonist EC80 value, and IC50 and EC50 values were derived from the antagonist inhibition and orexin-A or B agonist curves, respectively.
On the technique in general: A change in cytosolic calcium serves as a functional read-out for many receptors and channels.
Usually Kb stands for the equilibrium dissociation constant of an antagonist, usually derived from a functional assay. For `CNC(=O)[C@H](N[C@@H](CCc1ccc(C)cc1)c1ccc(F)c(C)c1)c1ccccc1` (racemic) [Example 365, (R,S)-2-[(S,R)-1-(4-Fluoro-3-methyl-phenyl)-3-p-tolyl-propylamino]-N-methyl-2-phenyl-acetamide], the Kb is 0.0124 µM.

For the compound `CNC(=O)[C@H](N[C@@H](CCc1ccc(C(F)(F)F)cc1)c1cccc(OC(F)F)c1)c1ccccc1` [Example 387, (R)-2-[(S)-1-(3-Difluoromethoxy-phenyl)-3-(4-trifluoromethyl-phenyl)-propylamino]-N-methyl-2-phenyl-acetamide], the Kb turned out to be 0.008 µM.

On to `CNC(=O)[C@H](N[C@@H](CCc1ccc(C(F)(F)F)cc1)c1sc(C)nc1C)c1ccc(F)cc1` [Example 116, (R)-2-[(S)-1-(2,4-Dimethyl-thiazol-5-yl)-3-(4-trifluoromethyl-phenyl)-propylamino]-2-(4-fluoro-phenyl)-N-methyl-acetamide], for which the Kb was 0.0061 µM.

`CNC(=O)[C@H](N[C@H](CCc1ccc(C(F)(F)F)nc1)c1ccc(Cl)c(OC)c1)c1ccc(F)cc1` (racemic) [Example 223, (S,R)-2-[(S,R)-1-(4-Chloro-3-methoxy-phenyl)-3-(6-trifluoromethyl-pyridin-3-yl)-propylamino]-2-(4-fluoro-phenyl)-N-methyl-acetamide]: the antagonist equilibrium constant (Kb) was determined as 0.0171 µM.

Regarding `CNC(=O)[C@H](N[C@@H](CCc1ccc(F)cc1)c1ccc(OC)c(OC)c1)c1ccccc1` (single isomer, unassigned) [Example 144], the Kb stood at 0.0097 µM.

Turning to `CNC(=O)[C@H](N[C@@H](CCc1cnc(Cl)cn1)c1ccc(OC(F)F)c(OC(F)F)c1)c1ccccc1` (racemic) [Example 297, (S,R)-2-[(R,S)-1-(3,4-Bis-difluoromethoxy-phenyl)-3-(5-chloro-pyrazin-2-yl)-propylamino]-N-methyl-2-phenyl-acetamide], the Kb stood at 0.0153 µM.

As for `CNC(=O)[C@H](N[C@H](CCc1ccc(C(F)(F)F)cc1)c1ccc(OC(F)F)c(OC(F)F)c1)c1ccccc1` (racemic) [Example 290, (S,R)-2-[(S,R)-1-(3,4-Bis-difluoromethoxy-phenyl)-3-(4-trifluoromethyl-phenyl)-propylamino]-N-methyl-2-phenyl-acetamide], the antagonist equilibrium constant (Kb) came out at 0.0536 µM.

`CNC(=O)[C@H](N[C@@H](CCc1ccc(C(F)(F)F)nc1)c1ccc(F)c(OC)c1)c1ccc(F)cc1` (racemic) [Example 240, (S,R)-2-[(R,S)-1-(4-Fluoro-3-methoxy-phenyl)-3-(6-trifluoromethyl-pyridin-3-yl)-propylamino]-2-(4-fluoro-phenyl)-N-methyl-acetamide]: the Kb was 0.0107 µM.

`CNC(=O)[C@H](N[C@@H](CCc1ccc(C(F)(F)F)nc1)c1ccc(C)c(C)c1)c1ccccc1` (racemic) [Example 251, (S,R)-2-[(R,S)-1-(3,4-Dimethyl-phenyl)-3-(6-trifluoromethyl-pyridin-3-yl)-propylamino]-N-methyl-2-phenyl-acetamide]: the Kb amounted to 0.0022 µM.

Regarding `CNC(=O)[C@H](N[C@@H](CCc1ccc(C(F)(F)F)cc1)c1ccc2c(c1)OCCN2C)c1ccccc1` [Example 115, (R)—N-Methyl-2-[(S)-1-(4-methyl-3,4-dihydro-2H-benzo[1,4]oxazin-7-yl)-3-(4-trifluoromethyl-phenyl)-propylamino]-2-phenyl-acetamide], the Kb was determined as 0.0114 µM.

In the case of `CNC(=O)[C@H](N[C@@H](CCc1ccc(C(F)(F)F)nc1)c1ccc2c(c1)CCCC2)c1ccc(F)cc1` [Example 102, (R)-2-(4-Fluoro-phenyl)-N-methyl-2-[(S)-1-(5,6,7,8-tetrahydro-naphthalen-2-yl)-3-(6-trifluoromethyl-pyridin-3-yl)-propylamino]-acetamide], the antagonist dissociation constant (Kb) came to 0.0114 µM.

Turning to `CNC(=O)[C@H](N[C@@H](CCc1ccc(C)cc1)c1ccc(OC)c(OC)c1)c1ccccc1` (racemic) [Example 209, (S,R)-2-[(R,S)-1-(3,4-Dimethoxy-phenyl)-3-p-tolyl-propylamino]-N-methyl-2-phenyl-acetamide], the Kb is 0.0024 µM.

Consider `COc1ccc(C(CCc2ccc(C(F)(F)F)cc2)N[C@@H](C(=O)NCC2CC2)c2ccccc2)cc1OC` (single isomer, unassigned) [Example 16, (R)-N-Cyclopropylmethyl-2-[(R or S)-1-(3,4-dimethoxy-phenyl)-3-(4-trifluoromethyl-phenyl)-propylamino]-2-phenyl-acetamide], for which the Kb amounted to 0.0142 µM.

Consider `CNC(=O)[C@H](N[C@@H](CCc1ccc(C(F)(F)F)cc1)c1cc(OC)ccn1)c1ccccc1` (racemic) [Example 210, (S,R)-2-[(R,S)-1-(4-Methoxy-pyridin-2-yl)-3-(4-trifluoromethyl-phenyl)-propylamino]-N-methyl-2-phenyl-acetamide], for which the Kb stood at 0.0096 µM.

As to `CNC(=O)[C@H](N[C@@H](CCc1cccc(C(F)(F)F)c1)c1ccc(OC)c(OC)c1)c1ccccc1` (racemic) [Example 321, (R,S)-2-[(S,R)-1-(3,4-Dimethoxy-phenyl)-3-(3-trifluoromethyl-phenyl)-propylamino]-N-methyl-2-phenyl-acetamide], the antagonist equilibrium constant (Kb) turned out to be 0.0028 µM.

`CNC(=O)[C@H](N[C@H](CCc1ccc(C(F)(F)F)nc1)c1ccc(Cl)c(OC)c1)c1ccccc1` (racemic) [Example 215, (S,R)-2-[(S,R)-1-(4-Chloro-3-methoxy-phenyl)-3-(6-trifluoromethyl-pyridin-3-yl)-propylamino]-N-methyl-2-phenyl-acetamide]: the Kb stood at 0.008 µM.

With `CNC(=O)[C@H](N[C@@H](CCc1ccc(C(F)(F)F)cc1)c1cccc(C)n1)c1ccccc1` (racemic) [Example 207, (S,R)—N-Methyl-2-[(R,S)-1-(6-methyl-pyridin-2-yl)-3-(4-trifluoromethyl-phenyl)-propylamino]-2-phenyl-acetamide], the Kb came to 0.0079 µM.

`CNC(=O)[C@@](C)(N[C@@H](CCc1ccc(C(F)(F)F)cc1)c1ccc(OC)c(OC)c1)c1ccccc1` (single isomer, unassigned) [Example 29]: the Kb amounted to 0.0184 µM.

For `CNC(=O)[C@H](N[C@@H](CCc1ccc(Cl)cc1)c1ccc(F)c(C)c1)c1ccccc1` [Example 392, (R)-2-[(S)-3-(4-Chloro-phenyl)-1-(4-fluoro-3-methyl-phenyl)-propylamino]-N-methyl-2-phenyl-acetamide], the antagonist dissociation constant (Kb) was 0.0059 µM.

As for `CNC(=O)[C@H](N[C@@H](CCc1ccc(Cl)cc1)c1ccc2c(c1)CCO2)c1ccccc1` [Example 96, (R)-2-[(S)-3-(4-Chloro-phenyl)-1-(2,3-dihydro-benzofuran-5-yl)-propylamino]-N-methyl-2-phenyl-acetamide], the Kb amounted to 0.0018 µM.

For `CNC(=O)[C@H](N[C@@H](CCc1ccc(Cl)cn1)c1ccc(OC(F)F)c(OC(F)F)c1)c1ccccc1` (racemic) [Example 306, (S,R)-2-[(R,S)-1-(3,4-Bis-difluoromethoxy-phenyl)-3-(5-chloro-pyridin-2-yl)-propylamino]-N-methyl-2-phenyl-acetamide], the Kb worked out at 0.0063 µM.

With `CNC(=O)[C@H](N[C@@H](CCc1ccc(C(F)(F)F)nc1)c1ccc(Cl)c(OC)c1)c1ccc(Cl)cc1` (racemic) [Example 220, (S,R)-2-[(R,S)-1-(4-Chloro-3-methoxy-phenyl)-3-(6-trifluoromethyl-pyridin-3-yl)-propylamino]-2-(4-chloro-phenyl)-N-methyl-acetamide], the antagonist dissociation constant (Kb) is 0.0015 µM.
